In ChEMBL document CHEMBL1157539, “Thousands of chemical starting points for antimalarial lead identification” (Nature, 2010):

System: Plasmodium falciparum
Experiment: GSK_TCMDC: Inhibition of Plasmodium falciparum 3D7 in whole erythrocytes, using parasite LDH activity as an index of growth.
Format: functional, organism-based
Conditions: Plasmodium falciparum, 3D7

Question: Which XC50 does the source give for `O=c1c2ccccc2nc(/C=C/c2ccc([N+](=O)[O-])cc2)n1-c1ccccn1` here?
Answer: Its XC50 is 382 nM.

Question: With `COc1cc2c(cc1C(F)(F)F)N(C(=O)Nc1cc(Br)cc(-c3cccnc3)c1)CC2` as the molecule, how does the XC50 read?
Answer: The XC50 was 864 nM.

Question: How did the XC50 turn out when `CCN1CCC(N(Cc2ccc(-c3ccc(C(F)(F)F)cc3)cc2)C(=O)Cn2c(CCc3cccc(F)c3F)cc(=O)c3ccccc32)C1` (stereo not drawn) was run?
Answer: The XC50 was 1010 nM.

Question: How did the XC50 turn out when `CN1CCC(N(Cc2ccc(-c3ccc(C(F)(F)F)cc3)cc2)C(=O)Cn2cc(Cc3cnn(C)c3)c(=O)nc2SCc2cccc(F)c2F)CC1` was run?
Answer: The XC50 was 933 nM.

Question: Which XC50 does the source give for `Cc1c(Cc2ccccc2Br)cnc2nc(N)nc(N)c12` here?
Answer: Its XC50 is 4.62 nM.

Question: Which XC50 does the source give for `O=C(/C=C/c1ccc(Cl)c(Cl)c1)NCCCCCN1CCC(NC(=O)Nc2ccc(Cl)c(C(F)(F)F)c2)CC1` here?
Answer: Its XC50 is 650 nM.

Question: With `CC(C)[C@H](NC(=O)c1ccc(O)c(-c2cccc(C(F)(F)F)c2)c1)C(=O)NCCN1CCCCC1` as the molecule, how does the XC50 read?
Answer: The XC50 was 836 nM.

Question: How did the XC50 turn out when `Cc1ccc(CNC(=O)[C@H](Cc2ccccc2)Nc2cc(C)nc(NCc3ccccc3C)n2)cc1` was run?
Answer: The XC50 was 803 nM.

Question: Which XC50 does the source give for `COc1cc2nccc(Nc3ccc(Oc4ccccc4)cc3)c2cc1OC` here?
Answer: Its XC50 is 684 nM.

Question: How did the XC50 turn out when `c1ccc(CNCc2cccc(-c3ccc(-c4nc5ccccc5[nH]4)s3)c2)cc1` was run?
Answer: The XC50 was 818 nM.

Question: `Cc1cc(N2CCCN(CC3CCCCC3)CC2)nc(Nc2ccc(Br)cc2)n1` was tested. Which XC50 did it give?
Answer: The XC50 was 943 nM.

Question: Which XC50 does the source give for `CN(C)/C(=N/C(=N)NCc1ccc(Cl)c(Cl)c1)NCCCCCCN/C(=N\C(=N)NCc1ccc(Cl)c(Cl)c1)N(C)C` here?
Answer: Its XC50 is 304 nM.

Question: For `Cc1noc(-c2ccc(N3CCC(C(=O)N4CCN(C(C)C)CC4)CC3)cc2)n1`, which XC50 is on record?
Answer: The XC50 was 1070 nM.

Question: With `Cc1cnc(-c2ccc(NC(=O)N3CCc4cc5nccc(N6CCN7CCC[C@H]7C6)c5cc43)c3ccccc23)o1` as the molecule, how does the XC50 read?
Answer: The XC50 was 858 nM.

Question: With `CCN(CC)CCNc1c2ccc(Cl)cc2nc2ccc(OC)nc12` as the molecule, how does the XC50 read?
Answer: The XC50 was 736 nM.

Question: How did the XC50 turn out when `C[C@H](NC(=O)[C@H](Cc1ccccc1)NC(=O)OC(C)(C)C)C(=O)N[C@@H](CC1CCCCC1)C(O)CN` (stereo partly drawn) was run?
Answer: Its XC50 is 733 nM.

Question: Which XC50 does the source give for `CCCC(=O)Nc1ccc(OCCCN(Cc2ccccc2C(F)(F)F)c2ccc(C#N)c(C(F)(F)F)c2)cc1` here?
Answer: The XC50 was 926 nM.

Question: With `CCN(CC)/C(=N/C(=N)NCc1ccc(Cl)cc1Cl)NCCCCCCN/C(=N\C(=N)NCc1ccc(Cl)cc1Cl)N(CC)CC` as the molecule, how does the XC50 read?
Answer: The XC50 was 218 nM.

Question: How did the XC50 turn out when `O=C(c1ccc(Cl)c(Cl)c1)N1CCc2c([nH]c3ccccc23)C1CN1CCCC1` (stereo not drawn) was run?
Answer: Its XC50 is 825 nM.

Question: Which XC50 does the source give for `Cc1cc(Nc2ccc(O)cc2)nc2cccc(O)c12` here?
Answer: Its XC50 is 742 nM.

Question: How did the XC50 turn out when `COc1ccc(CCNCCCCCCNCCc2ccc(Cl)c3ccccc23)cc1OC` was run?
Answer: Its XC50 is 580 nM.

Question: How did the XC50 turn out when `Cc1cc(F)ccc1[C@H]1CNCCN1C(=O)N(C)C(C)(C)c1cc(C(F)(F)F)cc(C(F)(F)F)c1` was run?
Answer: The XC50 was 594 nM.

Question: `Nc1nc(N)c2cc(NC(=O)c3ccc(Cl)c(Cl)c3)ccc2n1` was tested. Which XC50 did it give?
Answer: Its XC50 is 146 nM.

Question: `SC(=Nc1ccc(Cl)c(Cl)c1)NN=Cc1ccccn1` was tested. Which XC50 did it give?
Answer: Its XC50 is 768 nM.

Question: For `COc1ccc(CC(=O)NC(CCN2CCC3(CCc4ccccc43)CC2)c2ccc(Cl)c(Cl)c2)cc1` (stereo not drawn), which XC50 is on record?
Answer: Its XC50 is 525 nM.

Question: `CCOc1ccc(C(C)NC(=O)Nc2ccccc2)cc1OCC` (stereo not drawn) was tested. Which XC50 did it give?
Answer: The XC50 was 901 nM.

Question: How did the XC50 turn out when `CC1N=C(N)N=C(N)N1OCc1cccc2ccccc12` (stereo not drawn) was run?
Answer: The XC50 was 3.2 nM.

Question: For `COc1ccc2ncc(Cl)c(CCN3CC[C@@H](CNCc4cc5c(cn4)OCS5)C3)c2n1`, which XC50 is on record?
Answer: Its XC50 is 811 nM.

Question: Which XC50 does the source give for `Cc1ccc(C)c(S(=O)(=O)NCC2CCN(Cc3ccc(O)cc3)CC2)c1` here?
Answer: Its XC50 is 978 nM.

Question: How did the XC50 turn out when `O=C(NC(NC(=S)Nc1ccc([N+](=O)[O-])cc1)C(Cl)(Cl)Cl)c1cccc(Cl)c1` (stereo not drawn) was run?
Answer: The XC50 was 731 nM.

Question: For `COc1ccc(-n2ccnc2SCC(=O)Nc2cc(Cl)ccc2OC)c(OC)c1`, which XC50 is on record?
Answer: Its XC50 is 734 nM.

Question: For `CCOc1cc(C(=O)Nc2ccc3nc(N(CC)CC)cc(C)c3c2)cc(OCC)c1OCC`, which XC50 is on record?
Answer: Its XC50 is 696 nM.

Question: For `COc1ccc2c(c1)Nc1ccc(Cl)cc1C2N` (stereo not drawn), which XC50 is on record?
Answer: Its XC50 is 303 nM.

Question: With `CC1(CCCCN2CC=C(c3c[nH]c4ccccc34)CC2)C(=O)Nc2ccccc21` (stereo not drawn) as the molecule, how does the XC50 read?
Answer: The XC50 was 138 nM.

Question: For `CC(=O)N(Cc1nc(-c2cc(Cl)c(Cl)s2)cs1)c1c(C)cccc1C`, which XC50 is on record?
Answer: The XC50 was 333 nM.

Question: Which XC50 does the source give for `COc1ccc(Cc2cnc(N)nc2N)cc1OCCCOc1ccccc1` here?
Answer: Its XC50 is 911 nM.

Question: How did the XC50 turn out when `O=C(Nc1cc(Cl)cc(Cl)c1)Nc1ccccc1C(=O)NC1CCCCC1` was run?
Answer: The XC50 was 749 nM.

Question: With `O=C(Nc1cccc(-c2nn3ccccc3c2-c2ccnc(Nc3ccccc3)n2)c1)c1c(F)cccc1F` as the molecule, how does the XC50 read?
Answer: Its XC50 is 715 nM.

Question: For `CCCC(C)NC(=O)[C@H](Cc1ccccc1)NC(=O)c1ccc(O)c(-c2ccc(OC)cc2)c1` (stereo partly drawn), which XC50 is on record?
Answer: The XC50 was 1240 nM.

Question: For `O=C(/C=C/C=C/c1ccccc1)NC1CCC(CN2CCC(c3c[nH]c4ccccc34)CC2)CC1` (stereo not drawn), which XC50 is on record?
Answer: Its XC50 is 868 nM.

Question: For `CC(C)C[C@H](NC(=O)c1cc2ccccc2s1)C(=O)N[C@H]1CCN(Cc2ccc(I)c(OC3CCN(C)C3)c2)C1` (stereo partly drawn), which XC50 is on record?
Answer: The XC50 was 920 nM.

Question: For `COc1ccc2nccc([C@@H](O)CN3CCC(NCc4ccc(OC)c(NC=O)c4)CC3)c2c1`, which XC50 is on record?
Answer: The XC50 was 753 nM.

Question: How did the XC50 turn out when `COc1nc2c(CCN3CCC(NCc4ccc5c(c4)NC(=O)CO5)CC3)c(Cl)cnc2cc1F` was run?
Answer: The XC50 was 771 nM.

Question: For `C=CCOC(=O)N1CCC(CNCc2ccc(-c3cccc(-c4nc5cccc(C)c5[nH]4)c3)cc2)C1` (stereo not drawn), which XC50 is on record?
Answer: The XC50 was 118 nM.

Question: For `Cc1cc(=NN=Cc2ccccn2)c2cc(C(F)(F)F)ccc2[nH]1`, which XC50 is on record?
Answer: Its XC50 is 621 nM.

Question: For `O=C(NCC1Cc2cc(Oc3ccccc3)ccc2O1)c1ccc([N+](=O)[O-])o1` (stereo not drawn), which XC50 is on record?
Answer: Its XC50 is 917 nM.

Question: How did the XC50 turn out when `CCN1CCN(CCCNc2ccnc3cc(Cl)ccc23)CC1` was run?
Answer: The XC50 was 67 nM.

Question: For `CCOc1ccccc1CNc1nccc(NCc2ccc(Cl)cc2Cl)n1`, which XC50 is on record?
Answer: The XC50 was 1100 nM.
